Measured values reported in BindingDB's records for doi:10.7270/Q2PR7TCX (The Scripps Research Institute Molecular Screening Center, 2007).
Where a name gives a salt, the structure may show the parent alone.

target: Steroidogenic factor 1 (Homo sapiens, UniProt Q13285); experiment: inhibition of SF-1 LBD-driven luciferase – cell-based, CHO-K1, Gal4-SF-1 LBD, luciferase luminescence, counter-screen for RORA inhibitor project, dose response (AID 611); conditions: not given
Sequence (Q13285 whole entry, the tested form may be a part): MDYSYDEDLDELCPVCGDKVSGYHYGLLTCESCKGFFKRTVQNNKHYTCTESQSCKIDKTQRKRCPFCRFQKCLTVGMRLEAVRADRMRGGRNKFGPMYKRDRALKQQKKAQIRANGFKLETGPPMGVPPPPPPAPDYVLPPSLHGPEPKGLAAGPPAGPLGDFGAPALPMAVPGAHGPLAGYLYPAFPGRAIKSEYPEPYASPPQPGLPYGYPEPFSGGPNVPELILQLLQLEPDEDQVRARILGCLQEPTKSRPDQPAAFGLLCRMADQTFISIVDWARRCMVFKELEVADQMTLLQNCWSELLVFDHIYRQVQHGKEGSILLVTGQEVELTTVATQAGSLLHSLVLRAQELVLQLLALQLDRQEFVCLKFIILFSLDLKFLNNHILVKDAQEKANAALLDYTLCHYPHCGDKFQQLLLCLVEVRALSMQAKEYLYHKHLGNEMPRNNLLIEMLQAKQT

SMILES | IC50
O=C(NCc1ccco1)c1ccc2nc3sc4c(c3c(=O)n2c1)CCCC4 [MLS000091875] | > 4.06 µM
COc1ccc(C(=O)Nc2ccc(C)cn2)c(OC)c1 [2,4-dimethoxy-N-(5-methylpyridin-2-yl)benzamide] | > 1.22 µM
c1c2c(cc3sc(N4CCOCC4)nc13)OCCO2 [2-(4-morpholinyl)-6,7-dihydro-[1,4]dioxino[2,3-f][1,3]benzothiazole] | > 3.67 µM
CN1CCN(C(=O)COc2ccc(-c3nc4ccccc4s3)cc2)CC1 [2-[4-(1,3-benzothiazol-2-yl)phenoxy]-1-(4-methyl-1-piperazinyl)ethanone] | 5.28 µM
CCN(C(=O)c1ccc(C(C)(C)C)cc1)c1nnc(Cn2nnc3ccccc32)s1 [MLS000072751] | 7.71 µM
CC(=O)c1c(C)[nH]c(C(=O)Nc2ccc(C)cn2)c1C [SMR000026816] | 4.92 µM
Cc1ccc2[nH]c3c(N4CCCCCC4)ncnc3c2c1 [4-(azepan-1-yl)-8-methyl-5H-pyrimido[5,4-b]indole] | 7.45 µM
Cc1ccsc1C(=O)OCC(=O)c1cc(C)n(CC2CCCO2)c1C (configuration not stated) [3-methyl-2-thiophenecarboxylic acid [2-[2,5-dimethyl-1-(2-oxolanylmethyl)-3-pyrrolyl]-2-oxoethyl] ester] | > 0.0453 µM
CCOc1ccc(OCc2cccc(C(=O)O)c2)cc1 [3-[(4-ethoxyphenoxy)methyl]benzoic acid] | 0.274 µM
Oc1c(CN2CCN(c3ccccn3)CC2)cc(Cl)c2cccnc12 [5-chloranyl-7-[(4-pyridin-2-ylpiperazin-1-yl)methyl]quinolin-8-ol] | 6.65 µM
CCCCNc1cc(C)nc(NCc2ccccc2)n1 [2-N-benzyl-4-N-butyl-6-methylpyrimidine-2,4-diamine] | 9.37 µM
COc1cccc2sc(Nc3nc(-c4ccccn4)cs3)nc12 [(4-methoxy-1,3-benzothiazol-2-yl)-[4-(2-pyridyl)thiazol-2-yl]amine] | 3.89 µM
COc1ccc(C(=O)Nn2c(SCC(=O)NCc3ccco3)nc3ccccc3c2=O)cc1 [MLS000097349] | 5.3 µM
CCCCOc1ncnc2c1[nH]c1ccc(F)cc12 [4-butoxy-8-fluoranyl-5H-pyrimido[5,4-b]indole] | 4.2 µM
Clc1ccc(-n2ncc3c(N4CCCCCC4)ncnc32)cc1 [4-(1-azepanyl)-1-(4-chlorophenyl)pyrazolo[3,4-d]pyrimidine] | 0.846 µM
COc1ccc(CCNc2ncnc3c2oc2ccccc23)cc1OC [MLS000041708] | 2.27 µM
COc1ccc(OCc2cccc(C(=O)O)c2)cc1 [3-[(4-methoxyphenoxy)methyl]benzoic acid] | 0.37 µM
O=S(=O)(c1ccccc1)N1CCN(c2cc(-c3ccccc3)nc3ncnn23)CC1 [5-phenyl-7-[4-(phenylsulfonyl)piperazin-1-yl]-[1,2,4]triazolo[1,5-a]pyrimidine] | 8.96 µM
CCN(C1CCCCC1)S(=O)(=O)c1ccc(S(=O)(=O)NCc2ccncc2)cc1 [4-N-cyclohexyl-4-N-ethyl-1-N-(pyridin-4-ylmethyl)benzene-1,4-disulfonamide] | 9.51 µM
O=S1(=O)Nc2c(ccc3cccnc23)-c2ccccc21 [5H-quinolino[8,7-c][1,2]benzothiazine 6,6-dioxide] | 4.43 µM

SMILES | IC50
Clc1ccc(-c2nnc(NC3=NCCCCC3)o2)cc1 | > 3.67 µM
CC(C)OCCCNc1ncnc2c1[nH]c1ccc(F)cc12 | 6.34 µM
COc1cccc2c1C(=O)c1c(O)c3c(c(O)c1C2=O)C[C@@](O)(C(=O)CO)C[C@@H]3O[C@H]1C[C@H](N)[C@H](O)[C@H](C)O1 [MLS000028393] | 1.18 µM
CC(C)Cn1c(N)c(C(=O)CSc2ccc3c(c2)OCCO3)c(=O)n(C)c1=O [6-amino-5-[2-(2,3-dihydro-1,4-benzodioxin-6-ylsulfanyl)acetyl]-3-methyl-1-(2-methylpropyl)pyrimidine-2,4-dione] | 5.29 µM
O=C(OC1CCOC1=O)c1ccc(-c2nc3ccccc3s2)s1 (configuration not stated) [(2-oxidanylideneoxolan-3-yl) 5-(1,3-benzothiazol-2-yl)thiophene-2-carboxylate] | 5.18 µM
CCCCS(=O)(=O)/C=C\C=C/S(=O)(=O)CCCC [SMR000020833] | 1.64 µM
Fc1ccc2[nH]c3c(N4CCN(Cc5ccc6c(c5)OCO6)CC4)ncnc3c2c1 [4-[4-(1,3-benzodioxol-5-ylmethyl)-1-piperazinyl]-8-fluoro-5H-pyrimido[5,4-b]indole] | 3.38 µM
[H][C@@]12C[N@@](CCc3c([nH]c4ccccc34)[C@@](C(=O)OC)(c3cc4c(cc3OC)N(C=O)[C@]3([H])[C@]45CC[N@@]4CC=C[C@@](CC)([C@@H](OC(C)=O)[C@]3(O)C(=O)OC)[C@]45[H])C1)C[C@](O)(CC)C2 | 2.11 µM
CC(=O)Nc1ccc(SCC(=O)c2cc(C)n(Cc3cccs3)c2C)cc1 [MLS000058142] | 4.41 µM
O=C(CSc1nnc(COc2cccc3cccnc23)o1)N1CCc2ccccc21 [1-(2,3-Dihydro-indol-1-yl)-2-[5-(quinolin-8-yloxymethyl)-[1,3,4]oxadiazol-2-ylsulfanyl]-ethanone] | 3.97 µM
COc1cc(CSc2nnnn2-c2ccc(C)cc2)cc(OC)c1OC [1-(4-methylphenyl)-5-[(3,4,5-trimethoxybenzyl)thio]-1H-tetrazole] | 4.52 µM
c1ccc(-c2cccc(-c3ccccn3)n2)nc1 [2,6-bis(2-pyridinyl)pyridine] | 2.81 µM
NCCCCCc1nnc(SCc2ccccc2Cl)o1 [5-[5-[(2-chlorobenzyl)thio]-1,3,4-oxadiazol-2-yl]pentylamine;hydrochloride] | > 99 µM
CCOc1ccc(OCc2ccc(C(=O)OCc3ccccn3)o2)cc1 [5-(4-Ethoxy-phenoxymethyl)-furan-2-carboxylic acid pyridin-2-ylmethyl ester] | > 11 µM
O=C(c1ccccc1)C(CCC(CN1CCOCC1)C(=O)c1ccccc1)CN1CCOCC1 (configuration not stated) [2,5-bis(4-morpholinylmethyl)-1,6-diphenylhexane-1,6-dione;hydrochloride] | 18 µM
C=CCOc1nc2c(c(=O)n(C)c(=O)n2C)n1Cc1ccc(Cl)cc1 [7-[(4-chlorophenyl)methyl]-1,3-dimethyl-8-prop-2-enoxy-purine-2,6-dione] | > 11 µM
Cc1oc2nc(SCC(=O)NCc3cccnc3)nc(N)c2c1C [2-(4-amino-5,6-dimethylfuro[2,3-d]pyrimidin-2-yl)sulfanyl-N-(pyridin-3-ylmethyl)acetamide] | > 99 µM
COc1ccc(-c2cc3nc4n(c(=O)c3s2)CCOC4)cc1 [2-(4-methoxyphenyl)-7,8-dihydro-5H-thieno[1,2]pyrimido[4,5-a][1,4]oxazin-10-one] | 7.8 µM
COc1cccc(NC(=O)CSc2nnc(-c3cc(C)n(-c4ccccc4)c3C)o2)c1 [2-[[5-(2,5-dimethyl-1-phenyl-3-pyrrolyl)-1,3,4-oxadiazol-2-yl]thio]-N-(3-methoxyphenyl)acetamide] | 3.76 µM

same assay, conditions: inactive by the depositor's call

SMILES | IC50
O=C(CSc1nnc(Cn2nnc3ccccc32)o1)N(Cc1ccc(F)cc1)c1ccccc1 [2-(5-Benzotriazol-1-ylmethyl-[1,3,4]oxadiazol-2-ylsulfanyl)-N-(4-fluoro-benzyl)-N-phenyl-acetamide] | 11 µM
CCc1c(C)nc2ncnn2c1NCCc1ccc(OC)cc1 [(6-Ethyl-5-methyl-[1,2,4]triazolo[1,5-a]pyrimidin-7-yl)-[2-(4-methoxy-phenyl)-ethyl]-amine] | 11.6 µM
O=C1c2ccccc2S(=O)(=O)N1Cc1nc2ccccc2s1 [2-(1,3-benzothiazol-2-ylmethyl)-1,1-bis(oxidanylidene)-1,2-benzothiazol-3-one] | 10.6 µM
